Data on 5 molecules can be found in PMC11915811, “Conformational activation and disulfide exchange in HIV-1 Env induce cell-free lytic/fusogenic transformation and enhance infection” (Journal of Virology, 2025).

Entries after “also recorded” stand apart in the source; their conditions may differ. Read-outs that look alike come from different tables or passages of the source.

One assay addresses gp120. The following applies: read-out: Kd, gp120 binding affinity, cited from earlier work.
Assay [1] has as its system JRFL pseudovirus. The experiment in a line: Cell-free lysis of JRFL pseudovirus, p24 release detected by ELISA. The following applies: 2 h at 37°C; for Lysis of JRFL pseudovirus in conjunction with Trx1 (in words): 1,000 nM compound + serial dilutions of Trx1; for p24 leakage from JRFL pseudovirus with thiol compound in place of Trx1: 1,000 nM KR13b + 1,000 nM free cysteine or glutathione, mean of three independent experiments. For orientation: In an ELISA, binding on a coated surface is turned into a signal by an enzyme label.

Assay [2] deals with JRFL pseudovirus. In kind it is cell-based, HIV-1. The conditions noted are these: 1,000 nM Trx1; HOS CD4+ CCR5+ cells; normalized to pseudovirus + PBS.
Another assay relates to BaL.01 pseudovirus. It is filed as cell-based, HIV-1. The conditions noted are these: 1,000 nM Trx1; HOS CD4+ CCR5+ cells; normalized to pseudovirus + PBS.
A further assay relates to HXB2 pseudovirus. It is filed as cell-based, HIV-1. The conditions noted are these: 1,000 nM Trx1; HOS CD4+ CCR5+ cells; normalized to pseudovirus + PBS.
The test system of a further assay is VSV pseudovirus. It is filed as cell-based, vesicular stomatitis virus.

A word on the Kd: it is the constant that tells how readily two partners part at equilibrium.

For the molecule `COc1ccnc2[nH]cc(C(=O)C(=O)N3CCN(C(=O)c4ccccc4)C[C@H]3C)c12` [BMS-806], the dissociation constant (Kd) at gp120 (SPA (scintillation proximity assay)) was 21.1 ± 1.9 nM. The “Lysis of JRFL pseudovirus in conjunction with Trx1 (in words)” value in the assay with JRFL pseudovirus [1] is on record as “did not”.

As to `CNCc1ccc2c(c1)C[C@H](CN=C(N)N)[C@H]2NC(=O)C(=O)Nc1ccc(Cl)c(F)c1.O=C(O)C(F)(F)F.O=C(O)C(F)(F)F` [BNM-III-170], at gp120 (ITC), the Kd is 47 nM. In addition, the “Lysis of JRFL pseudovirus in conjunction with Trx1 (in words)” value with JRFL pseudovirus [1] is given as “did cause lysis”.

As to `N[C@@H](CS)C(=O)O` [cysteine], the “p24 leakage from JRFL pseudovirus with thiol compound in place of Trx1” value with JRFL pseudovirus [1] is given as “Neither thiol compound caused leakage of p24 above background”.

As for `N[C@@H](CCC(=O)N[C@@H](CS)C(=O)NCC(=O)O)C(=O)O` [glutathione], in the assay on JRFL pseudovirus [1], the “p24 leakage from JRFL pseudovirus with thiol compound in place of Trx1” value was “Neither thiol compound caused leakage of p24 above background”.

B1: Trx1: recombinant human thioredoxin-1, purchased from Cayman Chemical (protein)
chain: MVKQIESKTAFQEALDAAGDKLVVVDFSATWCGPCKMIKPFFHSLSEKYSNVIFLEVDVDDCQDVASECEVKCMPTFQFFKKGQKVGEFSGANKEKLEATINELV
For the molecule B1, the “Enhancement of pseudovirus infectivity (RLU) by exogenous Trx1” value in the assay with JRFL pseudovirus [2], in the assay on BaL.01 pseudovirus and with HXB2 pseudovirus was “at least doubling its RLU values” in each case. Also, the “Enhancement of VSV infection by Trx1” value in the assay on VSV pseudovirus was 10–40%. Further, the “p24 release / lysis of JRFL pseudovirus by the component alone (control)” value with JRFL pseudovirus [1] (serial dilutions of the single component, no partner) is “no significant p24 release; also recorded: negligible lysis”. Further, the “Effect of preincubating virus with one component on lysis (order of addition)” value in the assay with JRFL pseudovirus [1] (virus preincubated with 1,000 nM of labelled component for 0–30 min, then 1,000 nM of the other (KR13b or Trx1) added, versus no preincubation) is on record as “significant decrease in lytic effect at 10 min”.
